Source: patent publication US12031897B2, “Target-locking single-molecule nanoscopy” (Memorial Sloan Kettering Cancer Center, priority 2019, dated 2024)
“Also recorded” adds a separate entry of the source.

What was measured:
[1] = tested on: Sox2 foci at the Pou5f1 locus; experiment: Sox2 cluster signal at Pou5f1 upon inhibition (live-cell confocal/STED scans); assay type: cell-based, mouse; details: 1 μM JQ1 or 10 μM Flavopiridol
Description: Contrary to Brd4, Med22 and Cdk9, Sox2 clustering persists through transcription inhibition by either JQ1 or FVP (FIG. 8D). The differential sensitivities between factors and modes of transcription inhibition unveil a hierarchy of molecular transactions that control Pou5f1 transcription: Sox2 binding occurs upstream of Cdk9/Med22/Brd4 recruitment and accumulation of all of 4 regulatory factors occurs upstream of Pol II release into productive elongation. […] For real-time confocal and STED imaging, example implementations may program the wave generator to scan 2 μm×2 μm or 1 μm×1 μm xy areas in 0.8 sec or 0.2 sec respectively. 3D scanning was performed (via, e.g., detection system 150) by acquiring 5 xy scans while moving the stage by 0.5 μm in z between scans. TTL pulses corresponding to single-photon events from the APDs, together with the trigger pulses from the wave generator were detected using a field-programmable gate array (FPGA) data acquisition system (National Instruments, PCIe-7852R). Before imaging, cells were seeded onto 8-chamber coverglass (LabTek, 155411) coated with 5 μg/ml laminin (BioLamina LN511), in -2i media (OMG) or +2i media (NMG) and appropriate drugs. For SiR staining, cells were labeled with media containing 0.3 μM SiR-BG for 10 mins, at 37° C., followed by three washes with new media. Targeted integration of SNAP-tag in the endogenous Sox2, Cdk9, Brd4 and Med22 genes. To generate OMG or NMG SNAP-Sox2 targeted cells, OMG-1 or NMG mESCs (1×106) were transfected with 10 μg SNAP-Sox2 donor vector and 0.6 μg […] vector. 10 days after transfection, the cells were trypsinized, labeled with 0.3 μM SiR-BG for 10 mins, rinsed three times with new media, followed by immediate fluorescence-activated cell sorting (FACS). All the SiR-positive cells were collected, expanded for 2 weeks, trypsinized, labeled with SiR-BG and sorted again. Almost 100% SNAP positive pools were obtained from the second round of sorting and individual clones were picked and expanded. Homozygous clones (dubbed “OMG SNAP-Sox2 clone 8” and NMG SNAP-Sox2 clone 3'' respectively) with both Sox2 alleles correctly targeted with SNAP-tag integrations and that show SiR nuclear staining were selected for all further experiments.

[2] = tested on: Pol II (SiR-Rpb1) at the Pou5f1 transcription site; experiment: SiR-Rpb1 (Pol II) dynamics at Pou5f1 after drug addition (target-locking); assay type: cell-based, mouse; details: for Rpb1 exponential decay time from fits: Pou5f1, 10 μM flavopiridol, 10 μM triptolide or 1 μM JQ1; for Pol II signal at Pou5f1 upon transcription inhibition: paralleled by nascent RNA loss
Description: The images obtained from the Ixon3 897 detector (e.g., detection system 150) were analyzed on the fly by non-linear least-squares fitting of a 21×21 pixel ROI to a 2D Gaussian peak function implemented in LabVIEW. Axial localization was achieved either though the degree of defocus or based on astigmatism. The coordinates returned by the 2D Gaussian peak fit were passed onto a PID controller that calculated the desired position correction that was commanded to the nanopositioning stage controller. The LabVIEW application ran at sustained speeds of up to 30 frames/second. Before imaging, cells were seeded onto 8-chamber coverglass (LabTek, 155411) coated with 5 μg/ml laminin (BioLamina LN511), in −2i media (OMG) or +2i media (NMG) and appropriate drugs. For SiR staining, cells were labeled with media containing 0.3 μM SiR-BG for 10 mins, at 37° C., followed by three washes with new media. OMG-1 or NMG mESCs (1×106) were transfected with 10 μg PB007-EF1α-Flag-SNAP-Rpb1 (αAmR) and 1 μg pCMV-hyPBase vectors using Lipofectamine 2000 (Invitrogen 11668019). Cells were subjected to 3 mg/ml α-amanitin 2 days post-transfection. Individual α-amanitin-resistant colonies were picked after ˜2 weeks, expanded, labeled with SiR-BG and imaged.

[3] = biological target: T1, Brd4 foci at the Pou5f1 locus (Mus musculus, UniProt Q9ESU6); experiment: Brd4 cluster signal at Pou5f1 upon inhibition (live-cell confocal/STED scans); assay type: cell-based; details: for Brd4 signal at Pou5f1 upon inhibition: 1 μM JQ1 (within 1 min) or 10 μM Flavopiridol
T1 construct: integrating a SNAP-tag at the N-terminus of the endogenous Brd4; endogenous in cells; host or cells: mouse ESCs OMG-1, homozygous SNAP-Brd4 knock-in clone 9 (printed as 'OMG SNAP-Cdk9 clone 9')
Description: For real-time confocal and STED imaging, example implementations may program the wave generator to scan 2 μm×2 μm or 1 μm×1 μm xy areas in 0.8 sec or 0.2 sec respectively. 3D scanning was performed (via, e.g., detection system 150) by acquiring 5 xy scans while moving the stage by 0.5 μm in z between scans. TTL pulses corresponding to single-photon events from the APDs, together with the trigger pulses from the wave generator were detected using a field-programmable gate array (FPGA) data acquisition system (National Instruments, PCIe-7852R).
(§1) Before imaging, cells were seeded onto 8-chamber coverglass (LabTek, 155411) coated with 5 μg/ml laminin (BioLamina LN511), in −2i media (OMG) or +2i media (NMG) and appropriate drugs. For SiR staining, cells were labeled with media containing 0.3 μM SiR-BG for 10 mins, at 37° C., followed by three washes with new media.
To generate OMG or NMG SNAP-Brd4 targeted cells, OMG-1 or NMG mESCs (1×106) were transfected with 10 μg SNAP-Brd4 donor vector and 0.6 μg espCas9-gRNA-Brd4 vector. 10 days after transfection, the cells were trypsinized, labeled with SiR-BG and subjected to FACS, generating a first-round SiR-positive pool. This pool was then expanded, stained with SiR-BG and subjected to second FACS round and individual clones were picked and expanded.

[4] = tested on: Pou5f1 transcription site (MCP-mNeonGreen nascent RNA); experiment: MCP-mNeonGreen nascent transcription at the endogenous Pou5f1 locus in mESCs (live-cell imaging); assay type: cell-based, mouse; details: for MCP-mNeonGreen exponential decay time: Pou5f1, mESCs, 10 μM flavopiridol, 10 μM triptolide or 1 μM JQ1, mean±S.D.
Description: All the mESCs were cultured and maintained in +2i media with appropriate selection drugs on 0.1% gelatin-coated dishes, at 37° C. in a humidified 5% CO2 incubator. +2i media contain D-MEM (Thermo Fisher Scientific 10313021), 15% fetal bovine serum (Gemini Bio 100-500), 0.1 mM β-mercaptoethanol (Thermo Fisher Scientific 21985023), 2 mM L-alanyl-L-glutamine (Thermo Fisher Scientific 35050079), 1×MEM nonessential amino acids (Thermo Fisher Scientific 11140076), 1000 U/mL LIF (Millipore ESG1107), […] (Millipore 361559) and 1 μM PD0325901 (Axon Medichem 1408). OMG and NMG SNAP-Rpb1 cells were cultured with +2i media plus 3 μg/ml α-amanitin.
as §1
Wide-Field Cell Imaging Experiments. Live cell imaging experiments (tdPCP-EGFP and MCP-mNeonGreen tracking). For time-lapse imaging, a z-stack of 11 frames at 1 frame/second was acquired, by stepping the sample along the z-axis using the nanopositioning stage (250 nm steps). The CCD data were analyzed using IDL 6.4 (ITTVIS). Maximum projection images were calculated for each stack, and the resulting 11 sec/frame movie was used to track the intensities of individual tdPCP-EGFP-tagged transcription sites. A particle tracking routine (Crocker and Grier, 1996) was used for finding the positions of the transcription site in each frame and linking them into a 2D trajectory. The intensity trace of tdPCP-EGFP at the transcription site was corrected for photo-bleaching using the time trace of tdPCP-EGFP in a nearby nuclear region. The auto-correlation function was calculated (for the tdPCP-EGFP fluctuation analysis), or the data were imported in Origin 8.5.0 (OriginLab) and the trace fitted to a single-exponential decay (for the transcription inhibition experiments).

| SMILES | Sox2 clustering at Pou5f1 upon transcription inhibition [1] | Rpb1 exponential decay time from fits [2] | Brd4 signal at Pou5f1 upon inhibition [3] | Hill equation n, relative Brd4 signal at Pou5f1 vs. [JQ1] ([3]; Pou5f1) | Hill equation n, relative MCP signal vs. [JQ1] ([4]; Pou5f1) | MCP-mNeonGreen exponential decay time [4] | response of individual Pou5f1 transcription sites at intermediate inhibitor concentration ([4]; intermediate [A-485] or [JQ1]) | Pou5f1 transcription activity ([4]; upon JQ1 (FIG. 7A, 1 μM)) | Pol II signal at Pou5f1 upon transcription inhibition [2] |
| --- | --- | --- | --- | --- | --- | --- | --- | --- | --- |
| Cc1sc2c(c1C)C(c1ccc(Cl)cc1)=N[C@@H](CC(=O)OC(C)(C)C)c1nnc(C)n1-2 [JQ1] | persists | 310 ± 123 s | drop sharply | 1.3±0.3 | 1.1±0.7 | 300 ± 136 s | decays to a new finite plateau; also recorded: attenuated output, without completely shutting down | abruptly abolishes | – |
| CN1CC[C@H](c2c(O)cc(O)c3c(=O)cc(-c4ccccc4Cl)oc23)[C@H](O)C1 [flavopiridol] | persists | 347 ± 104 s | not lost | – | – | 378 ± 193 s | – | – | gradual Pol II signal loss |
| CC(C)[C@]12O[C@H]1[C@@H]1O[C@]13[C@]1(O[C@H]1C[C@H]1C4=C(CC[C@@]13C)C(=O)OC4)[C@@H]2O [triptolide] | – | 565 ± 109 s | – | – | – | 378 ± 115 s | – | – | gradual Pol II signal loss |
